Data reported in patent publication US20240092741A1, “COMPOSITION FOR PREVENTION OR TREATMENT OF NEUROFIBROMATOSIS TYPE 2 SYNDROME” (PRG S&TECH INC., priority 2021, published 2024).
“Also recorded” adds a separate entry of the source.

Key:
Type in all cases: cell-based, human
RKIP = RKIP expression by Western blotting in HEI-193 cells; conditions: compounds 10 μM, 24 h (FIG. 1A) or 72 h (FIG. 2), Western blot
Description: Cells were harvested and lysed using RIPA buffer [50 mM Tris-Cl, pH 7.5, 150 mM NaCl, 1% NP-40, 0.1% SDS, and 10% sodium deoxycholate] to examine cellular signaling. Protein concentrations in samples were measured using Bio-Rad (Hercules, CA, USA) protein assay kits and BSA standards. The samples (20 μg protein per lane) were separated by sodium dodecyl sulfate-polyacrylamide gel electrophoresis (SDS-PAGE), transferred to Immobilon-P^SQ transfer membranes (Millipore Corp., MA, USA), which were then cultured with 3% skim milk-containing TBS-T buffer (Tris-HCl-based buffer containing 20 mM Tris pH 7.6, 150 mM NaCl, and 0.05% Tween 20) for 1 hour at room temperature and then reacted with primary antibody in TBS-T overnight at 4° C. The membranes were then washed and reacted with secondary horseradish peroxidase (HRP)-conjugated antibodies [goat anti-mouse, goat anti-rabbit, and mouse anti-goat antibodies (Pierce, Thermo Fisher Scientific, Inc., Rockford, IL, USA)] in TBS-T at room temperature for 2 hours. The blots were detected using an HRP-conjugated secondary antibody using ECL kit (Intron, Seoul, Korea).
Because RKIP degradation in NF2 cells is clearly known (Mol Cancer Ther 17, 2271-2284, 2018), after first treating 260 novel synthetic compounds, RKIP expression was measured in HEI-193, a human NF2 cell line.

TGF-β signaling = assay: 3TP-luciferase assay in HEI-193 cells; conditions: high concentrations, TGF-β1 2 ng/ml (FIG. 8D)
Description: To estimate the transcriptional activity of TGF-β signaling, 3TP-Luc vectors were transfected into cells for 24 hours, and the cells were treated with the indicated chemicals. After washing with wash buffer (Promega, Wisconsin, USA), the cells were lysed using lysis buffer (Promega, Wisconsin, USA). Luciferase activity was measured using a luminometer (MicroDigital, Gyeonggi-do, Korea).

HEI-193 cells = assay: Cell-cycle analysis by FACS in HEI-193 cells; conditions: 10 μM, 4 days (FIGS. 12A, 13A)
Description: […] After 4 days, the cells were fixed with 70% ethanol and labeled with propidium iodine. These samples were analyzed by FACS for cell-cycle analysis. After 7 days of treatment with DMSO (control group), PRG-N-01, or TEW7197 at the indicated concentration, the cells were fixed with 4% paraformaldehyde and then stained with indicated antibody. A minimum of 10,000 cells were analyzed using an Attune NxT Flow cytometer (Thermo Fisher Scientific, Inc., Rockford, IL, USA).

Which RKIP expression (RKIP) does the source give for `CCN(CC)CCOc1ccc(-c2nnn(Cc3ccc(OC)cc3)c2N)cc1` [PRG-N-01, 4-(4-(2-(diethylamino)ethoxy)phenyl)-1-(4-methoxybenzyl)-1H-1,2,3-triazol-5-amino] here?
The RKIP expression was “induced RKIP expression; also recorded: increased RKIP expression”.

What about the “TGF-β signaling (3TP-luciferase activity)” value (TGF-β signaling) of the same compound?
Its value is “did not inhibit TGF-β signaling even at high concentrations”.

And the cell cycle (HEI-193 cells)?
The cell cycle was “cell cycle arrest was induced at the G1 phase”.
